According to patent US10556927B2 (priority 2014, dated 2020):

Test system: HVA calcium channel currents in DRG neuronal cells
Assay type: cell-based, rat

COC(=O)C1=C(C)NC(C)=C(C(=O)OC)C1c1ccccc1[N+](=O)[O-] [Nifedipine]
current after loading: −734.31 pA
current before loading: −1471.35 pA
inhibition rate (10 µM): 50.09%
